Data as given in patent US12692259B2, “Morpholine-containing and piperazine-containing CXCR4 modulators and uses related thereto” (Emory University, priority 2021, dated 2026).

Assays:
[1] = PAMPA assay; assay type: in vitro ADME; conditions: pH 7.4
Description: PAMPA assay was performed by BioAssay Systems Services or Bristol Myers Squibb. The method used by BioAssay Systems Services is described below.
Stock solutions in DMSO for all compounds (10 mM) were thawed. The assay was performed in duplicate by following the PAMPA-096 procedure for sample plating. 4% Lecithin in dodecane solution was prepared by resuspending the dried lecithin with 750 μL dodecane. PBS pH 7.4 was used as the diluent. Two sets of plates and equilibrium solutions were incubated for 4 hours at room temperature. Acceptor and equilibrium solutions were analyzed in a UV plate. OD280 nm was used for High Permeability Control (chloramphenicol). OD270 nm was used for Medium Permeability Control (diclofenac) and Low Permeability Control (theophylline). OD254 nm was used for the test compounds.
Data analysis was performed by using the peak absorbance for each respective test compound and Permeability Control to determine the Permeability Rate (Pe) via the following equation: […]
where ODA is the absorbance of Acceptor Solution, ODE is the absorbance of the Equilibrium Standard, and C is determined by the equation below: […]
where Donor Volume (VD) is 0.2 cm^3, Acceptor Volume (VA) is 0.3 cm^3, and Membrane Area (Area) is 0.24 cm^2.

[2] = Metabolic stability assay, human liver microsomes (HLM); assay type: in vitro ADME; conditions: 10 min
Excerpt: Controls were processed and analyzed like the test compounds.

[3] = in vitro; conditions: mouse, 10 min, 3 µM, pH 7.4
Description: Metabolic stability assay was performed at Emory University's Department of Chemistry or by Bristol Myers Squibb. The method used by Emory University's Department of Chemistry is described below.
Each method was developed in the presence of an internal standard (ISTD) d5-7-ethoxy coumarin. The column temperature was maintained at 40° C. for most of the samples otherwise noted. The detection was operated in the Agilent JetStream electrospray positive ionization using multiple reaction monitoring mode (MRM).
Other MS conditions were as follows: dwell time 100 ms; gas flow 10 L/min; nebulizer pressure 45 psi; delta EMV 200 V; fragmentor voltage and collision energy for individual compounds vary.
Test compounds were dissolved in 100% DMSO or 100% MeOH to make 10 mM stock solutions. Verapamil (Sigma Aldrich) aided as a positive control and was dissolved in 100% DMSO to make 10 mM stock solutions. The 10 mM stock solution of test and control compounds were further diluted in potassium phosphate buffer (100 mM, pH 7.4) to 500 μM to ensure the organic solvent content was <0.2%. Human liver microsomes (HLMs) were purchased from Xenotech at 20 mg/mL. NADPH (Sigma Aldrich) 10 mM stocks were prepared in deionized water.
The HLM assay was prepared in a 1.5 mL Eppendorf tube with a final volume of 1100 μL for duplicate runs. Each reaction contained phosphate buffer (928.4 μL), liver microsomes (55 μL), and test compound resulting in a final concentration of 3 μM (6.6 μL of 500 μM). The reaction was initiated with 110 μL of 10 mM NADPH. […] Before centrifugation each of the aliquoted tubes were vortexed to make sure compounds were in the solution. The aliquots were centrifuged at 12,000 g for 5 min and the supernatant removed and placed in an LC-MS vial. Each time point was assessed using LC-MS and the area, based on the extracted ion, was integrated with respect to the ISTD. […] A no-NADPH negative control with test or control compound was performed in a single run (150 μL) at the longest time point. Controls were processed and analyzed like the test compounds. Each time point was run in duplicates followed by in-between blank washes to avoid the carryover and to equilibrate the column.
The MLM assay was performed using the same procedures as those described above for the HLM assay.

[4] = molecular target: CXCR4 (Homo sapiens, UniProt P61073); assay: cAMP assay in CXCR4-CHO-Glo cells (GloSensor, forskolin + SDF-1α); assay type: cell-based; parameters: expressed in transfected cells
Excerpt: Materials, reagents, and instrument—Advanced DMEM (Gibco), trypsin EDTA (0.05%, phenol red), L-glutamine, HBSS buffer with and without Ca^2+/Mg^2+ (Gibco), antibiotic-antimycotic (Gibco), hygromycin B, and geneticin selective antibiotic (G418 sulfate) were purchased from Invitrogen. Forskolin (Tocris), SDF-1α (R&D Systems), HEPES (Sigma Aldrich), FBS (Atlanta Biologicals), D-luciferin (Gold Biotechnology), sterile 60 mm tissue culture dishes, and 96-well sterile tissue culture plates were purchased from Corning.
The assay targeted CXCR4 expressed in CHO-gloSensor cells. It monitored GPCR activation based on forskolin-stimulated cAMP production in cells. The assay used a genetically encoded biosensor with its cAMP binding domain fused to luciferase. Binding of cAMP to the cAMP binding domain changed the conformation of the biosensor, leading to the activation of luciferase. The intensity of the luciferase signal (light output) resulted from the oxidation of D-luciferin to oxyluciferin is proportional to the amount of cAMP produced in the cells.
The assay was performed in triplicate using live cells in 96-well tissue culture plates. Cells were pre-incubated in the dark at room temperature for one hour in the presence of D-luciferin. Bioluminescence was quantified before and after the agonist/antagonist addition. Stock solution of forskolin and SDF-1a, was prepared in Locke-Luc buffer. Stock solutions of the test compounds were prepared in DMSO (10 mM); they were diluted by Locke's buffer for use in the assay.
CHO-Glo cells, a cell line stably expressing the GloSensor cAMP biosensor (Promega), were transfected with cDNA encoding human CXCR4 in Pires-AcGFP1 (Clontech) and a stable cell line was isolated (CXCR4-CHO-Glo cells). The CXCR4-CHO-Glo cells were grown to confluency on 60 mm tissue culture dishes. After trypsinization, the cells were plated on 96-well plates and incubated overnight. The next day, culture media in each well was aspirated and replaced with 100 μL Locke's buffer containing 4 mM D-luciferin, followed by incubation in the dark for one hour. Before the addition of agonist/antagonist, each plate was read five times at 2 min intervals to obtain basal bioluminescence values from each well. The average of these five pre-readings was used to normalize each well's response to account for differences in GloSensor expression and cell density. After five pre-readings, cAMP formation was initiated with the addition of 50 μL solution of test compound (TC) in Locke Luc buffer containing forskoline and SDF-1α. […] Luminescence was measured immediately after the addition of the antagonist solution. The measurements were taken every two minutes for 30 minutes in kinetics mode after antagonist addition. IC50 values were calculated from the 4-parameter logistic equation using Prism GraphPad.

Sequence of CXCR4 (P61073 whole entry): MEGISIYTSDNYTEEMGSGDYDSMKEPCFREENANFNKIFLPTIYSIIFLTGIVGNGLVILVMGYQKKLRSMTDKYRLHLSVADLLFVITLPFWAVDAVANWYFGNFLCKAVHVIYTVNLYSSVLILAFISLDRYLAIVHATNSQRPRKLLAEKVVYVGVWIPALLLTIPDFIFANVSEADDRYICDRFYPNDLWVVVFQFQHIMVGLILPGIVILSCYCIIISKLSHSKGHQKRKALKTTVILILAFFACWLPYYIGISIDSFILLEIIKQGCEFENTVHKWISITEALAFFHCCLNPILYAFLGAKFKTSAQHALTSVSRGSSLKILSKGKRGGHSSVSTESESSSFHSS

Row | SMILES | Papp at 4 h [1] [×10⁻⁶ cm/s] | Liver Microsomes % rem. @ 10 min. H [2] [%] | Liver Microsomes % rem. @ 10 min. M [3] [%] | IC50 [4] [nM]
1 | c1cnc2c(c1)CCC[C@@H]2N(CCCN1CCNCC1)C[C@H]1Cc2c(cccc2N2CCOCC2)CN1 [EMU-184, (S)—N—(((R)-5-morpholino-1,2,3,4-tetrahydroisoquinolin-3-yl)methyl)-N-(3-(piperazin-1-yl)propyl)-5,6,7,8-tetrahydroquinolin-8-amine] | 3 |  |  | 
2 | Cc1cnc(CN(C)C[C@H]2Cc3c(cccc3N3CCOCC3)CN2)c(C)c1 [EMU-260, (R)-1-(3,5-dimethylpyridin-2-yl)-N-methyl-N-((5-morpholino-1,2,3,4-tetrahydroisoquinolin-3-yl)methyl)methanamine] | 19.2 |  |  | 
3 | CN(CCCCN(C[C@H]1Cc2c(cccc2N2CCOCC2)CN1)[C@H]1CCCc2cccnc21)C1CCC(F)(F)CC1 [EMU-273, N1-(4,4-difluorocyclohexyl)-N1-methyl-N4-(((R)-5-morpholino-1,2,3,4-tetrahydroisoquinolin-3-yl)methyl)-N4-((S)-5,6,7,8-tetrahydroquinolin-8-yl)butane-1,4-diamine] | 22.6 |  |  | 
4 | C[C@@H]1CN(c2cccc3c2C[C@H](CN(C)[C@H]2CCCc4cccnc42)NC3)CCO1 [EMU-317, (S)—N-methyl-N—(((R)-5-((R)-2-methylmorpholino)-1,2,3,4-tetrahydroisoquinolin-3-yl)methyl)-5,6,7,8-tetrahydroquinolin-8-amine] | 15.5 |  |  | 
5 | CN(C[C@H]1Cc2c(cccc2N2CCOCC2)CN1)[C@H]1CCOc2cccnc21 [EMU-319, (4S)—N-methyl-N-((5-morpholino-1,2,3,4-tetrahydroisoquinolin-3-yl)methyl)-3,4-dihydro-2H-pyrano[3,2-b]pyridin-4-amine] | 16 |  |  | 
6 | CN(C)C(=O)N1CCN(c2cccc3c2C[C@H](CN(C)[C@H]2CCCc4cccnc42)NC3)CC1 [EMU-327, N,N-dimethyl-4-((R)-3-((methyl((S)-5,6,7,8-tetrahydroquinolin-8-yl)amino)methyl)-1,2,3,4-tetrahydroisoquinolin-5-yl)piperazine-1-carboxamide] | 12.2 | 11.00 | 38.10 | 684

Further lines, results first:

Row | Papp at 4 h [1] [×10⁻⁶ cm/s] | Liver Microsomes % rem. @ 10 min. H [2] [%] | Liver Microsomes % rem. @ 10 min. M [3] [%] | IC50 [4] [nM] | SMILES
7 | 12.3 |  |  |  | CN(C[C@H]1Cc2c(cccc2N2CC3CC2CO3)CN1)[C@H]1CCCc2cccnc21 (stereo in doubt) [EMU-325, (S)—N—(((R)-5-((1R,4R)-2-oxa-5-azabicyclo[2.2.1]heptan-5-yl)-1,2,3,4-tetrahydroisoquinolin-3-yl)methyl)-N-methyl-5,6,7,8-tetrahydroquinolin-8-amine]
8 | 10 |  |  |  | CCN1CCN(CCCN(C[C@H]2Cc3c(cccc3N3CCOCC3)CN2)[C@H]2CCCc3cccnc32)CC1 [EMU-275, (S)—N-(3-(4-ethylpiperazin-1-yl)propyl)-N—(((R)-5-morpholino-1,2,3,4-tetrahydroisoquinolin-3-yl)methyl)-5,6,7,8-tetrahydroquinolin-8-amine]
9 | 16.5 |  |  |  | CN(C[C@H]1Cc2c(cccc2N2C[C@H]3CC[C@@H](C2)O3)CN1)[C@H]1CCCc2cccnc21 [EMU-295, (S)—N—(((R)-5-((1R,5S)-8-oxa-3-azabicyclo[3.2.1]octan-3-yl)-1,2,3,4-tetrahydroisoquinolin-3-yl)methyl)-N-methyl-5,6,7,8-tetrahydroquinolin-8-amine]
10 | 16.6 |  |  |  | C[C@H]1CN(c2cccc3c2C[C@H](CN(C)[C@H]2CCCc4cccnc42)NC3)CCO1 [EMU-318, (S)—N-methyl-N—(((R)-5-((S)-2-methylmorpholino)-1,2,3,4-tetrahydroisoquinolin-3-yl)methyl)-5,6,7,8-tetrahydroquinolin-8-amine]
11 | 13.1 |  |  |  | CN(C[C@H]1Cc2c(cccc2N2CCO[C@@H](CO)C2)CN1)[C@H]1CCCc2cccnc21 [EMU-322, ((R)-4-((R)-3-((methyl((S)-5,6,7,8-tetrahydroquinolin-8-yl)amino)methyl)-1,2,3,4-tetrahydroisoquinolin-5-yl)morpholin-2-yl)methanol]
12 | 7.6 | 87.1 | 78.3 | 492 | CN(C[C@H]1Cc2c(cccc2N2CCN(C(N)=O)CC2)CN1)[C@H]1CCCc2cccnc21 [EMU-326, 4-((R)-3-((methyl((S)-5,6,7,8-tetrahydroquinolin-8-yl)amino)methyl)-1,2,3,4-tetrahydroisoquinolin-5-yl)piperazine-1-carboxamide]
13 | 15.7 |  |  |  | C[C@@H]1COCCN1c1cccc2c1C[C@H](CN(C)[C@H]1CCCc3cccnc31)NC2 [EMU-338, (S)—N-methyl-N—(((R)-5-((R)-3-methylmorpholino)-1,2,3,4-tetrahydroisoquinolin-3-yl)methyl)-5,6,7,8-tetrahydroquinolin-8-amine]
14 | 17.1 |  |  |  | C[C@H]1COCCN1c1cccc2c1C[C@H](CN(C)[C@H]1CCCc3cccnc31)NC2 [EMU-339, (S)—N-methyl-N—(((R)-5-((S)-3-methylmorpholino)-1,2,3,4-tetrahydroisoquinolin-3-yl)methyl)-5,6,7,8-tetrahydroquinolin-8-amine]
